The values below come from patent US20240424111A1, “Degrader Compounds and Uses Thereof” (CALICO LIFE SCIENCES LLC, priority 2021, published 2024).

SMILES strings stand for the structures.

Assay [1] has as its target T1, PTPN2 (Mus musculus, UniProt Q06180).
T1 construct: HiBiT; host or cells: B16F10.4
T1 sequence (Q06180 1-406): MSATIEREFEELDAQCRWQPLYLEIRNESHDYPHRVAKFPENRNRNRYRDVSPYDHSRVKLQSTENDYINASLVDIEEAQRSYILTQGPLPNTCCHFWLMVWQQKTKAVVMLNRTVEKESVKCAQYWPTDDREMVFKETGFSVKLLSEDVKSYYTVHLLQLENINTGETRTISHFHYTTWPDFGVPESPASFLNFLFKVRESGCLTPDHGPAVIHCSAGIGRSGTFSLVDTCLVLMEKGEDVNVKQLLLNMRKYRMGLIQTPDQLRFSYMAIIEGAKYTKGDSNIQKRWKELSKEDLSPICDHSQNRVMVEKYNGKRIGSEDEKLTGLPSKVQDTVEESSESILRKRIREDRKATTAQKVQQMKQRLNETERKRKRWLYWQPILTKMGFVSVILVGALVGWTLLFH
The assay can be described thus: HiBiT PTPN2 degradation in B16F10.4 cells, 24 hours. Type of assay: cell-based. A digest of the protocol: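 PTPN2 degradation was measured via luminescence from the Nano-Glo® HiBiT Lytic Assay kit. Compounds were dispensed into 384-well plates at an 11-point half-log titration in duplicate, starting at 10 μM. Cells were added at 5000 per well and held at 37° C. with 5% CO2 for 24 hours. Untreated cells were the negative control and cells without lytic reagent the positive control. Lytic reagents were then added and luminescence read on an EnVision™ Multilabel Reader.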
For orientation: HiBiT is a short tag that completes a luciferase, so light tracks the accessible tagged protein.

For assay [2], the target named is T2, PTPN2 (Homo sapiens, UniProt P17706).
T2 construct: expressed in transfected cells; host or cells: 293T.109 (HiBiT-PTPN2), derived from 293T WT (ATCC)
T2 sequence (P17706 1-415): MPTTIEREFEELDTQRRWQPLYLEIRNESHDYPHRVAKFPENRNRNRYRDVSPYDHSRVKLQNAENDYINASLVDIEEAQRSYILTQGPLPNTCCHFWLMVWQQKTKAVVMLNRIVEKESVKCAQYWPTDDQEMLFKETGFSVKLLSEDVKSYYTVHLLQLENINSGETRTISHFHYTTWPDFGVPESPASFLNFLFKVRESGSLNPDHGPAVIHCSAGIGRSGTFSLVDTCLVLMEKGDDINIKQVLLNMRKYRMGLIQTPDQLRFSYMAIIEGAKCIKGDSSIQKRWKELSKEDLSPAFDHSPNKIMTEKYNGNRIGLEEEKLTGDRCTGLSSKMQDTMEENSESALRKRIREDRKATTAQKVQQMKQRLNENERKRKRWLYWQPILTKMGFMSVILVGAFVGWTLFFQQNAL
The experiment in a line: HiBiT PTPN2 degradation in 293T.109 (HiBiT-PTPN2) cells, 24 hours. Type of assay: cell-based. The conditions noted are these: 293T.109 cells. A digest of the protocol:
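293T cells stably expressing N-terminal HiBiT-tagged PTPN2 were treated for 24 h at 37 °C with compound in an 11-point half-log series from 10 μM top concentration, in duplicate. Remaining HiBiT-PTPN2 was measured by lytic luminescence, with untreated cells as the negative control and wells without lytic reagent as the positive control.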

For orientation: DC50 means the concentration at which degradation of the target reaches its halfway point. As to `Cc1nn(C2CCC(=O)NC2=O)c2ccc(C3CCN(CC(=O)Nc4ccc5c(F)c(N6CC(=O)NS6(=O)=O)c(O)cc5c4)CC3)cc12` (centres unmarked) [Degrader 100], the DC50 is 0.15 to 0.5 µM in assay [1] and under 0.05 µM in assay [2].
Regarding `Cn1c(=O)n(C2CCC(=O)NC2=O)c2ccc([C@@H]3CN(CC(=O)Nc4ccc5c(F)c(N6CC(=O)NS6(=O)=O)c(O)cc5c4)CC[C@H]3F)cc21` (some centres unmarked) [Degrader 141], the 50% degradation concentration (DC50) in assay [1] is 0.05 to 0.15 µM; in assay [2] it was under 0.05 µM.
As to `Cn1c(=O)n(C2CCC(=O)NC2=O)c2cc(F)c(N3CCC(CCNC(=O)Nc4ccc5c(F)c(N6CC(=O)NS6(=O)=O)c(O)cc5c4)CC3)cc21` (centres unmarked) [Degrader 58], the values for the DC50 in assay [1] and in assay [2] were 0.15 to 0.5 µM and under 0.05 µM, respectively.
On the same counts, the results for `C[C@@H]1CN(CC(=O)Nc2ccc3c(F)c(N4CC(=O)NS4(=O)=O)c(O)cc3c2)CCN1c1cc2c(cc1F)n(C1CCC(=O)NC1=O)c(=O)n2C` (some centres unmarked) [Degrader 150] are 0.15 to 0.5 µM and 0.15 to 0.5 µM.
On the same counts, the results for `Cn1c(=O)n(C2CCC(=O)NC2=O)c2ccc3c(c21)CCCN3C1CCN(CC(=O)Nc2ccc3c(F)c(N4CC(=O)NS4(=O)=O)c(O)cc3c2)CC1` (centres unmarked) [Degrader 75] are at least 0.5 µM and at least 0.5 µM.
On the same counts, the results for `CC(C)n1c(=O)n(C2CCC(=O)NC2=O)c2ccc(N3CCC(CC(=O)Nc4ccc5c(F)c(N6CC(=O)NS6(=O)=O)c(O)cc5c4)CC3)cc21` (centres unmarked) [Degrader 35] are 0.15 to 0.5 µM and at least 0.5 µM.
For `C[C@H]1CN(c2ccc3c(c2)n(C)c(=O)n3C2CCC(=O)NC2=O)CC[C@H]1CC(=O)Nc1ccc2c(F)c(N3CC(=O)NS3(=O)=O)c(O)cc2c1` (some centres unmarked) [Degrader 126], the DC50 in assay [1] and in assay [2] was 0.05 to 0.15 µM each time.
As to `C[C@H]1CN(CC(=O)Nc2ccc3c(F)c(N4CC(=O)NS4(=O)=O)c(O)cc3c2)CCN1c1cc2c(cc1F)n(C1CCC(=O)NC1=O)c(=O)n2C` (some centres unmarked) [Degrader 65], the results for the 50% degradation concentration (DC50) in assay [1] and in assay [2] were at least 0.5 µM and 0.15 to 0.5 µM, respectively.
For `Cn1c(=O)n(C2CCC(=O)NC2=O)c2cc(F)c(-c3ccc(CC(=O)Nc4ccc5c(F)c(N6CC(=O)NS6(=O)=O)c(O)cc5c4)cc3)cc21` (centres unmarked) [Degrader 44], the DC50 in assay [1] and in assay [2] was 0.15 to 0.5 µM throughout.
Regarding `Cc1cc(CC(=O)Nc2ccc3c(F)c(N4CC(=O)NS4(=O)=O)c(O)cc3c2)ccc1Oc1ccc2c(c1)n(C)c(=O)n2C1CCC(=O)NC1=O` (centres unmarked) [Degrader 81], the DC50 in assay [1] and in assay [2] was 0.05 to 0.15 µM in each case.
With `CCn1nc(C2CCC(=O)NC2=O)c2ccc(C3CCN(CC(=O)Nc4ccc5c(F)c(N6CC(=O)NS6(=O)=O)c(O)cc5c4)CC3(F)F)cc21` (centres unmarked) [Degrader 11], the DC50 lay in the range of 0.15 to 0.5 µM in assay [1] and 0.05 to 0.15 µM in assay [2].
As to `Cn1nc(C2CCC(=O)NC2=O)c2ccc(Nc3ccc(CC(=O)Nc4ccc5c(F)c(N6CC(=O)NS6(=O)=O)c(O)cc5c4)cc3F)cc21` (centres unmarked) [Degrader 41], the DC50 is 0.05 to 0.15 µM in assay [1] and under 0.05 µM in assay [2].
On the same counts, the results for `COC1(CC(=O)Nc2ccc3c(F)c(N4CC(=O)NS4(=O)=O)c(O)cc3c2)CCN(c2ccc3c(c2)n(C)c(=O)n3C2CCC(=O)NC2=O)CC1` (centres unmarked) [Degrader 99] are 0.05 to 0.15 µM and under 0.05 µM.
On the same counts, the results for `CCn1nc(C2CCC(=O)NC2=O)c2ccc(C3CCN(CC(=O)N4CC(Oc5ccc6cc(O)c(N7CC(=O)NS7(=O)=O)c(F)c6c5)C4)CC3(F)F)cc21` (centres unmarked) [Degrader 12] are 0.05 to 0.15 µM and under 0.05 µM.
Consider `Cn1c(=O)n(C2CCC(=O)NC2=O)c2ccc(C3CCN(CC4CC4C(=O)N4CC[C@H](c5ccc6cc(O)c(N7CC(=O)NS7(=O)=O)c(F)c6c5)C4)CC3)cc21` (some centres unmarked) [Degrader 17], for which the 50% degradation concentration (DC50) lay within 0.15 to 0.5 µM in assay [1] and 0.05 to 0.15 µM in assay [2].
Take `Cn1c(=O)n(C2CCC(=O)NC2=O)c2ccc(N3CCN(CC(=O)Nc4ccc5c(F)c(N6CC(=O)NS6(=O)=O)c(O)cc5c4)C(=O)C3)cc21` (centres unmarked) [Degrader 139]: the DC50 in assay [1] was at least 0.5 µM; in assay [2], 0.15 to 0.5 µM.
